Reference: patent US20110237538A1, “TREATMENT OF LYSOSOMAL STORAGE DISORDERS AND OTHER PROTEOSTATIC DISEASES” (SUMMIT CORPORATION PLC, priority 2008, published 2011)

Legend:
Assay type in all cases: biochemical
beta-glucuronidase = target: T1, beta-glucuronidase (Homo sapiens, UniProt P08236); assay: inhibition of beta-glucuronidase (Example 3)
T1 sequence (P08236 23-651): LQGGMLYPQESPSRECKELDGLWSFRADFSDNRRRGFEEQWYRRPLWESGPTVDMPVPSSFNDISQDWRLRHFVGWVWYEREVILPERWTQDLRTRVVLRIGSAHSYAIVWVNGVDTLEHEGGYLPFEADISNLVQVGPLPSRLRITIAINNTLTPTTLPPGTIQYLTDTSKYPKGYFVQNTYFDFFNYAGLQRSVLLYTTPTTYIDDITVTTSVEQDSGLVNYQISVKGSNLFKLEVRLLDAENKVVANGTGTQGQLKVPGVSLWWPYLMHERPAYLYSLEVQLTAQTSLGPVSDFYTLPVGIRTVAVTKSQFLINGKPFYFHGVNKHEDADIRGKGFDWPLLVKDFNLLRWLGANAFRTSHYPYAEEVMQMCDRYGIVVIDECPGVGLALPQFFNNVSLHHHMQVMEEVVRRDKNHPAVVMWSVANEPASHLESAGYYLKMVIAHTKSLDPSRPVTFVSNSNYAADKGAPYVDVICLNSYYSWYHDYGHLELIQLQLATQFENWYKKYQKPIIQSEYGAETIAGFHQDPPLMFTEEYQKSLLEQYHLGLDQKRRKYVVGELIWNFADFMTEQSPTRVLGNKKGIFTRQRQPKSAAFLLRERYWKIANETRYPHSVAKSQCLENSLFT
Excerpt: This compound, for example, might therefore show therapeutic activity for mucopolysaccharidosis type 1.

[1] = target: T2, α-L-fucosidase (bovine kidney) (Bos taurus, UniProt Q2KIM0); assay: glycosidase assay with p-nitrophenyl substrates (Example 2); details: 10 μl of 5 mM iminosugar solution in 70 μl incubation mixture; 20° C.
T2 construct: purchased Sigma Aldrich Chemicals Limited; host or cells: bovine kidney
T2 sequence (Q2KIM0 23-468): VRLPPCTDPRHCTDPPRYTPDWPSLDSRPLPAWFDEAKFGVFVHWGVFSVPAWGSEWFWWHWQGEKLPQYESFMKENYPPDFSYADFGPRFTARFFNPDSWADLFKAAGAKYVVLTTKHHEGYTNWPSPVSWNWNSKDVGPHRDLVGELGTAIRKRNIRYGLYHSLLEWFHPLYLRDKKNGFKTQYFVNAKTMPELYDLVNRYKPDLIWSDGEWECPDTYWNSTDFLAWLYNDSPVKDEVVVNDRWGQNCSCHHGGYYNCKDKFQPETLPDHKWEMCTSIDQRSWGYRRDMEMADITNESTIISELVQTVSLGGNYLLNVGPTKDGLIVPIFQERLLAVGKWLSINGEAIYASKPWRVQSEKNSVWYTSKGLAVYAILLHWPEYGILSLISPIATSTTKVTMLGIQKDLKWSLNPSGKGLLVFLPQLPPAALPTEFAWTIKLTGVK
Summary of the method: (§1)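 Iminosugars tested at 5 mM (solution concentration) against p-nitrophenyl substrates (5 mM) in McIlvaine citrate/phosphate buffer at each enzyme's optimum pH, 20° C. Reactions stopped with 0.4M glycine pH 10.4 within the exponential phase; absorbance at 405 nm against water blanks.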

[2] = target: T3, α-D-galactosidase (green coffee beans) (Coffea arabica, UniProt Q42656); assay: as above; details: 10 μl of 5 mM iminosugar solution in 70 μl incubation mixture; 20° C.; read-out: Promotion of glycosidase activity: α-D-galactosidase (Green coffee bean)
T3 construct: purchased Sigma Aldrich Chemicals Limited
Summary of the method: as §1

[3] = test system: α-D-glucosidase (Bacillus sterothermophilus); assay: as above; details: 10 μl of 5 mM iminosugar solution in 70 μl incubation mixture; 20° C.
Summary of the method: as §1

T3 sequence (Q42656 16-378): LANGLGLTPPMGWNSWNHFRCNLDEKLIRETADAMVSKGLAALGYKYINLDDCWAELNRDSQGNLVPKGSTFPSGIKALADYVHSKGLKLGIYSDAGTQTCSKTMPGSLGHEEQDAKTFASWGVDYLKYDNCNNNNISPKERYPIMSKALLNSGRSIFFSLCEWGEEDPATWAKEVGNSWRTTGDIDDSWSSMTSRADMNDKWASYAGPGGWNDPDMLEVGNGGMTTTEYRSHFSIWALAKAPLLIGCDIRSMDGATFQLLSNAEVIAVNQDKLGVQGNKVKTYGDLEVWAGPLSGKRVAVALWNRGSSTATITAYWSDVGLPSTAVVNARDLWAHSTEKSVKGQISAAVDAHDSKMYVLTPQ

Row | Structure (SMILES) | inhibition of beta-glucuronidase (in words) (beta-glucuronidase) | Promotion of glycosidase activity: α-L-fucosidase (Bovine kidney) [1] | activation at 714 µM [2] | Promotion of glycosidase activity: α-D-glucosidase (Bacillus sterothermophilus) [3]
1 | O=C(O)[C@H]1NC[C@H](O)[C@@H](O)[C@@H]1O [Compound 7, (2S,3R,4R,5S)-3,4,5-trihydroxypiperidine-2-carboxylic acid] | specific inhibitor | – | – | –
2 | CCCCCCCCCN1C[C@H](O)[C@H](O)[C@@H]1[C@H](O)[C@H](O)CO [Compound 324, (1S,2R)-1-((2R,3R,4S)-3,4-dihydroxy-1-nonylpyrrolidin-2-yl)propane-1,2,3-triol] | – | 42 % increase in absorbance compared to the water controls | 42% | 150 % increase in absorbance compared to the water controls
